Measured values: ChEMBL document CHEMBL3085709, “Modulators of the Sphingosine 1-phosphate receptor 1” (Bioorg Med Chem Lett, 2013)

Experiments:
[1] = tested on: Rattus norvegicus; assay: Immunomodulatory activity in rat assessed as decrease in peripheral blood lymphocyte count at 100 mg/kg, po after 12 hrs; assay type: functional; design: scale not given: the % may be the effect or the level left
[2] = Half life of the compound; assay type: physicochemical
[3] = tested on: Rattus norvegicus; assay: Immunomodulatory activity in rat assessed as decrease in peripheral blood lymphocyte count at 50 mg/kg, po after 1 to 8 hrs; assay type: functional; design: scale not given: the % may be the effect or the level left
[4] = biological target: T1, Sphingosine 1-phosphate receptor 5 (Homo sapiens, UniProt Q9H228); assay: Inhibition of S1P5 receptor (unknown origin)
[5] = biological target: T2, Sphingosine 1-phosphate receptor 4 (Homo sapiens, UniProt O95977); assay: Inhibition of S1P4 receptor (unknown origin)
T2 sequence (O95977 whole entry): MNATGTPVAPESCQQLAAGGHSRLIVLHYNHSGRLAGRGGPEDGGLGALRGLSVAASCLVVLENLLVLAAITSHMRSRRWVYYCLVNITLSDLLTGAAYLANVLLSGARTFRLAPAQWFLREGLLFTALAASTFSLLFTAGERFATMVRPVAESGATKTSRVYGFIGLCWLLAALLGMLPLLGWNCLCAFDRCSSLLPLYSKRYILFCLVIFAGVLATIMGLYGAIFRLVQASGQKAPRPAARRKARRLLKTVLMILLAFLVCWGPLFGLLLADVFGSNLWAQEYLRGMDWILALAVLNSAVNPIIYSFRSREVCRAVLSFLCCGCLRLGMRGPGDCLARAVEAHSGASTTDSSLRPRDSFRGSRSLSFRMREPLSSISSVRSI

[6] = biological target: T3, Sphingosine 1-phosphate receptor 3 (Homo sapiens, UniProt Q99500); assay: Inhibition of S1P3 receptor (unknown origin)
[7] = biological target: Sphingosine 1-phosphate receptor 1 (Homo sapiens, UniProt P21453); assay: Antagonist activity at human S1P1 receptor expressed in HEK293 cells assessed as inhibition of S1P-induced decrease in cAMP formation by [35S]GTPgammaS binding assay; assay type: functional, cell-based
[8] = tested on: Mus musculus; assay: Immunomodulatory activity in po dosed mouse assessed as decrease in peripheral blood lymphocyte count after 3 hrs; assay type: functional
[9] = Half life in human; assay type: ADME, organism-based; details: in vivo
[10] = tested on: Homo sapiens; assay: Immunomodulatory activity in multiple sclerosis patient assessed as decrease in peripheral blood lymphocyte count at 5 mg/kg, po; assay type: functional; design: scale not given: the % may be the effect or the level left
[11] = tested on: Homo sapiens; assay: Immunomodulatory activity in multiple sclerosis patient assessed as decrease in peripheral blood lymphocyte count at 1.25 mg/kg, po; assay type: functional; design: scale not given: the % may be the effect or the level left
[12] = biological target: T1, Sphingosine 1-phosphate receptor 5; assay: Agonist activity at S1P5 receptor (unknown origin)
[13] = biological target: T2, Sphingosine 1-phosphate receptor 4; assay: Agonist activity at S1P4 receptor (unknown origin)
[14] = biological target: T3, Sphingosine 1-phosphate receptor 3; assay: Agonist activity at S1P3 receptor (unknown origin)
[15] = tested on: Rattus norvegicus; assay: Immunomodulatory activity in rat assessed as decrease in peripheral blood lymphocyte count at 30 mg/kg, po after 48 hrs; assay type: functional; design: scale not given: the % may be the effect or the level left
[16] = tested on: Rattus norvegicus; assay: Immunomodulatory activity in rat assessed as decrease in peripheral blood lymphocyte count at 30 mg/kg, po after 14 to 24 hrs; assay type: functional; design: scale not given: the % may be the effect or the level left
[17] = biological target: T1, Sphingosine 1-phosphate receptor 5; assay: Antagonist activity at human S1P5 receptor expressed in CHO cells after 120 mins by [35S]GTPgammaS binding assay; assay type: functional, cell-based
[18] = biological target: T2, Sphingosine 1-phosphate receptor 4; assay: Antagonist activity at human S1P4 receptor expressed in CHO cells assessed as inhibition of agonist-induced calcium mobilization preincubated for 20 mins by Fluo-4/FLIPR method; assay type: functional, cell-based
[19] = biological target: T3, Sphingosine 1-phosphate receptor 3; assay: Antagonist activity at human S1P3 receptor expressed in CHO cells assessed as inhibition of agonist-induced calcium mobilization preincubated for 20 mins by Fluo-4/FLIPR method; assay type: functional, cell-based
[20] = biological target: Sphingosine 1-phosphate receptor 2 (Homo sapiens, UniProt O95136); assay: Antagonist activity at human S1P2 receptor expressed in CHO cells assessed as inhibition of agonist-induced calcium mobilization preincubated for 20 mins by Fluo-4/FLIPR method; assay type: functional, cell-based
[21] = biological target: T1, Sphingosine 1-phosphate receptor 5; assay: Agonist activity at human S1P5 receptor expressed in CHO cells by [35S]GTPgammaS binding assay; assay type: functional, cell-based
[22] = biological target: T2, Sphingosine 1-phosphate receptor 4; assay: Agonist activity at human S1P4 receptor expressed in CHO cells by [35S]GTPgammaS binding assay; assay type: functional, cell-based

T1 sequence (Q9H228 whole entry): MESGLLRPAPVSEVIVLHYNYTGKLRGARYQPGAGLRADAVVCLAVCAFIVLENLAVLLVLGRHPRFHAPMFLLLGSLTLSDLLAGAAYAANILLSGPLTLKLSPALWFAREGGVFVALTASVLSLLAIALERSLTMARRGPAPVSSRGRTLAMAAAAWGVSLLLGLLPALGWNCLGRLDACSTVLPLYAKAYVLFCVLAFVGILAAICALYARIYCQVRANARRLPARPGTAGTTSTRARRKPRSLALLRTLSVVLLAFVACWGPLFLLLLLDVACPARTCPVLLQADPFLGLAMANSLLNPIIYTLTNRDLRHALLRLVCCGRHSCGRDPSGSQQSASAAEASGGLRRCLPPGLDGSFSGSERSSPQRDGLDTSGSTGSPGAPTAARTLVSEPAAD
T3 sequence (Q99500 whole entry): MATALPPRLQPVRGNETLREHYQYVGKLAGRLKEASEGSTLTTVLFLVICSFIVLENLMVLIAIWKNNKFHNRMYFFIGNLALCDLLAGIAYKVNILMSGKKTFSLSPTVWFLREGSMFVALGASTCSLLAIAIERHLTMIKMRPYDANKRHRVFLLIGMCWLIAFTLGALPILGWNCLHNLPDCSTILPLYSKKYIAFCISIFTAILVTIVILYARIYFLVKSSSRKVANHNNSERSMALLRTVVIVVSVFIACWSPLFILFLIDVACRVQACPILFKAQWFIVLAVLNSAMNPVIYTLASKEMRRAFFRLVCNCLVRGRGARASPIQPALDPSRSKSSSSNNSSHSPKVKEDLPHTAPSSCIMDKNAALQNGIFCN
Sphingosine 1-phosphate receptor 1, sequence (P21453 whole entry): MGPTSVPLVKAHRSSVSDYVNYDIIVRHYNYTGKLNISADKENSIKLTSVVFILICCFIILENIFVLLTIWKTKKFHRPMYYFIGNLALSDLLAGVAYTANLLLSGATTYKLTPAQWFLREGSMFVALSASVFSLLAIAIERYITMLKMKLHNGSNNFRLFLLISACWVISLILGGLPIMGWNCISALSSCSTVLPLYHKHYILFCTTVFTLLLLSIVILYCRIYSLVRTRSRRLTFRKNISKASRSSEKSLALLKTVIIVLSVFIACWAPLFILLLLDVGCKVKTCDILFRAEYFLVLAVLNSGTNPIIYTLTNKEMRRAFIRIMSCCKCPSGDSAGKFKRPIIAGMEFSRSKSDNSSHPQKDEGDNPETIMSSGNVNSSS
Sphingosine 1-phosphate receptor 2, sequence (O95136 whole entry): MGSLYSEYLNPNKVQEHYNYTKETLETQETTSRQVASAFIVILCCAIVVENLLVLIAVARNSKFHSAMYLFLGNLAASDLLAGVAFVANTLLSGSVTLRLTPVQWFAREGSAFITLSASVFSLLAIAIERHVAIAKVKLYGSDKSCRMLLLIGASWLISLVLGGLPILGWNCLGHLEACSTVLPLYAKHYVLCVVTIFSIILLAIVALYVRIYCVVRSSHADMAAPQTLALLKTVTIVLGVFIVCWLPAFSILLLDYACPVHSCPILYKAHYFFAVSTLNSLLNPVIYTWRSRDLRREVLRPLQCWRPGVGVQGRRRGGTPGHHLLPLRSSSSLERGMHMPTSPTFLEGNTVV

For `Cc1cc(S(=O)(=O)Nc2cccc(-c3cc(C)c(C(=O)N[C@@H](C)C(=O)O)c(C)c3)c2)c(C)cc1Cl`, the Activity [1] was 75%.
`Cc1ccc(CCCC(=O)c2ccc(CC[C@@](C)(N)CO)n2C)cc1` showed a half-life [2] of 168 h.
`CCn1c(OC)nnc1[C@@H](C)NS(=O)(=O)c1ccc(F)c(Cl)c1` gave an Activity [3] greater than 70%, a Ki [4] greater than 10 µM and a Ki [5] greater than 10 µM. For the same molecule, the Ki [6] was 4.88 µM, the IC50 [7] was 0.383 µM and the Ki [7] was 0.249 µM.
Work on `O=C(O)C1CN(Cc2ccc(-c3noc(-c4cc(-c5ccccc5)c(C(F)(F)F)s4)n3)cc2)C1` yielded an ED50 [8] of 0.07 mg/kg.
`CCCCCCCCc1ccc(CCC(N)(CO)CO)cc1` [FINGOLIMOD] gave a half-life [9] of 216 h, an Activity [10] of 20% and an Activity [11] of 20%. It also gave an EC50 [12] of 0.0003 µM, an EC50 [13] of 0.0003 µM and an EC50 [14] of 0.003 µM.
With `Cc1cc([C@@H](C)Nc2cccc(-c3cc(C)c(C(=O)N[C@@H](C)C(=O)O)c(C)c3)c2)ccc1Cl` the Activity [15] was 60%, the Activity [16] was 75% and the IC50 [17] was greater than 10 µM. The IC50 [18] was greater than 10 µM, the IC50 [19] was greater than 10 µM and the IC50 [20] was greater than 10 µM. It also gave an EC50 [13] of 0.245 µM.
Molecule `CCC/N=C1\S/C(=C\c2ccc(OC[C@H](O)CO)c(Cl)c2)C(=O)N1c1ccccc1C` [PONESIMOD] has a half-life [2] of 30 h.
Molecule `CCc1cc(/C(C)=N/OCc2ccc(C3CCCCC3)c(C(F)(F)F)c2)ccc1CN1CC(C(=O)O)C1` [SIPONIMOD] has a half-life [9] of 30 h, an EC50 [21] of 0.00098 µM and an EC50 [22] of 0.75 µM.
